“And” between values parts separate entries of the source, which are not always exact repeats. Equal entries are not always repeated. Where two headings read alike, the source gives them in different places.
Columns and labels:
Assay type in all cases: cell-based
NR2F6 LBD = target: T1, NR2F6 LBD (Homo sapiens, UniProt P10588); assay: NR2F6 LBD transient transfection
T1 construct: expressed in transfected cells
T1 sequence (P10588 165-393 limits assumed): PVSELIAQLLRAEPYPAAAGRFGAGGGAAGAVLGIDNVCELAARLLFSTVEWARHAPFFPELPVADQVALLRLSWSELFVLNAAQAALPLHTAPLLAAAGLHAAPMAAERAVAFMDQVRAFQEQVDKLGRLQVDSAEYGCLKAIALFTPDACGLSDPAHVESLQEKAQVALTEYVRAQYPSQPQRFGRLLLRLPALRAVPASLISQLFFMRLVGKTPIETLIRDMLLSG
Outline: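 LBD-transfected cells treated at 40, 10, 2 and 0.5 μM (4 replicates); cytotoxicity measured in parallel, normalized to DMSO (0%) and zero signal (100%). Higher concentrations excluded where signal loss reflected toxicity.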

HEK293 pGL4 = assay: Firefly_pGL signal, cmpd/DMSO (pGL4 control cells); conditions: Homo sapiens
NR2F6 = target: T2, NR2F6 (Homo sapiens, UniProt P10588); assay: NR2F6 agonist screening, Firefly signal cmpd/DMSO
T2 construct: expressed in transfected cells; also transient transfection
T2 sequence (P10588 1-404): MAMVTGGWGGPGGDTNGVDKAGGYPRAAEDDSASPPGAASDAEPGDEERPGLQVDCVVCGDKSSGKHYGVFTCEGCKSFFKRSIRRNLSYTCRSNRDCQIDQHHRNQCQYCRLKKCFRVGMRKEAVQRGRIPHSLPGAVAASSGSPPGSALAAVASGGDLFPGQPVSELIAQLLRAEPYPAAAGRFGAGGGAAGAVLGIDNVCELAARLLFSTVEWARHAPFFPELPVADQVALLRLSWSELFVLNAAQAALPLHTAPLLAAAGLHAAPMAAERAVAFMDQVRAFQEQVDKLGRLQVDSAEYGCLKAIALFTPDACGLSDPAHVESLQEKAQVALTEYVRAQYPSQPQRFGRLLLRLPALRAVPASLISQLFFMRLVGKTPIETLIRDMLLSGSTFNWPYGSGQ

Renilla [1] = assay: Renilla signal in NR2F6 agonist screening, cmpd/DMSO; conditions: Renilla
Renilla [2] = assay: Renilla signal, LBD, cmpd/DMSO (NR2F6 LBD transfected cells)
[3] = HEK293, 0.5 uM, pGL4, read-out: Firefly pGL4, cmpd/DMSO (mean)
[4] = HEK293, 2 uM, pGL4, read-out: Firefly pGL4, cmpd/DMSO (mean)
[5] = HEK293, 10 uM, pGL4, read-out: Firefly pGL4, cmpd/DMSO (mean)
[6] = HEK293, 40 uM, pGL4, read-out: Firefly pGL4, cmpd/DMSO (mean)
[7] = HEK293, pGL4, 1% FBS, 0.5 uM, read-out: Firefly, pGL4, 1% FBS, cmpd/DMSO (mean)
[8] = HEK293, pGL4, 1% FBS, 2 uM, read-out: Firefly, pGL4, 1% FBS, cmpd/DMSO (mean)
[9] = HEK293, pGL4, 1% FBS, 10 uM, read-out: Firefly, pGL4, 1% FBS, cmpd/DMSO (mean)
[10] = HEK293, pGL4, 1% FBS, 40 uM, read-out: Firefly, pGL4, 1% FBS, cmpd/DMSO (mean)
[11] = HEK293, pGL4, 10% FBS, 0.5 uM, read-out: Firefly, pGL4, 10% FBS, cmpd/DMSO (mean)
[12] = HEK293, pGL4, 10% FBS, 2 uM, read-out: Firefly, pGL4, 10% FBS, cmpd/DMSO (mean)
[13] = HEK293, pGL4, 10% FBS, 10 uM, read-out: Firefly, pGL4, 10% FBS, cmpd/DMSO (mean)
[14] = HEK293, pGL4, 10% FBS, 40 uM, read-out: Firefly, pGL4, 10% FBS, cmpd/DMSO (mean)
[15] = read-out: Renilla F4, cmpd/DMSO (mean)
[16] = F4, read-out: Renilla, F4, cmpd/DMSO (mean)
[17] = F4, 1% FBS, read-out: Renilla, F4, 1% FBS, cmpd/DMSO (mean)
[18] = F4, 10% FBS, read-out: Renilla, F4, 10% FBS, cmpd/DMSO (mean)

CC(C)CCN[C@H]1CS(=O)(=O)C[C@@H]1S(=O)(=O)c1ccc(Cl)cc1 [Compound D131]
Firefly LBD, cmpd/DMSO (mean) (NR2F6 LBD; 0.5 uM): 0.8 | Firefly LBD, cmpd/DMSO (mean) (NR2F6 LBD; 0.5 uM, LBD): 1.3 | Firefly LBD, cmpd/DMSO (mean) (NR2F6 LBD; 2 uM): 1.7 | Firefly LBD, cmpd/DMSO (mean) (NR2F6 LBD; 2 uM, LBD): 2.0 | Firefly LBD, cmpd/DMSO (mean) (NR2F6 LBD; 10 uM): 4.3 | Firefly LBD, cmpd/DMSO (mean) (NR2F6 LBD; 10 uM, LBD): 3.6 | Firefly LBD, cmpd/DMSO (mean) (NR2F6 LBD; 40 uM): 0.5 | Firefly LBD, cmpd/DMSO (mean) (NR2F6 LBD; 40 uM, LBD): 0.7 | fold induction at 0.5 µM (HEK293 pGL4; [3]): 1.1 | fold induction at 0.5 µM (HEK293 pGL4; HEK293, 0.5 uM, read-out: Firefly pGL4, cmpd/DMSO (mean)): 1 | fold induction at 2 µM (HEK293 pGL4; [4]): 1.5 | fold induction at 2 µM (HEK293 pGL4; HEK293, 2 uM, read-out: Firefly pGL4, cmpd/DMSO (mean)): 1.3 | fold induction at 10 µM (HEK293 pGL4; [5]): 2.7 | fold induction at 10 µM (HEK293 pGL4; HEK293, 10 uM, read-out: Firefly pGL4, cmpd/DMSO (mean)): 2.3 | fold induction at 40 µM (HEK293 pGL4; [6]): 0.5 | fold induction at 40 µM (HEK293 pGL4; HEK293, 40 uM, read-out: Firefly pGL4, cmpd/DMSO (mean)): 1 | fold induction at 0.5 µM (HEK293 pGL4; [7]): 1 | fold induction at 2 µM (HEK293 pGL4; [8]): 1.1 | fold induction at 10 µM (HEK293 pGL4; [9]): 1.7 | fold induction at 40 µM (HEK293 pGL4; [10]): 0.9 | fold induction at 0.5 µM (HEK293 pGL4; [11]): 1 | fold induction at 2 µM (HEK293 pGL4; [12]): 1.2 | fold induction at 10 µM (HEK293 pGL4; [13]): 1.9 | fold induction at 40 µM (HEK293 pGL4; [14]): 1.8 | Firefly F4, cmpd/DMSO (mean) (NR2F6; 0.5 uM): 1.3 | Firefly F4, cmpd/DMSO (mean) (NR2F6; 0.5 uM, F4): 1.4 | Firefly F4, cmpd/DMSO (mean) (NR2F6; 2 uM): 1.4 | Firefly F4, cmpd/DMSO (mean) (NR2F6; 2 uM, F4): 1.9 | Firefly F4, cmpd/DMSO (mean) (NR2F6; 10 uM): 4.3 | Firefly F4, cmpd/DMSO (mean) (NR2F6; 10 uM, F4): 4.1 | Firefly F4, cmpd/DMSO (mean) (NR2F6; 40 uM): 0.9 | Firefly F4, cmpd/DMSO (mean) (NR2F6; 40 uM, F4): 2.3 | F4, Firefly/Renilla for S/B(F4) > 3 (NR2F6; 1% FBS, 10 uM): 2.7 and 2.1 | F4, Firefly/Renilla for S/B(F4) > 3 (NR2F6; 10% FBS, 10 uM): 2.2 | Firefly, F4/pGL4 for S/B(F4) > 3 (NR2F6; 10% FBS, 10 uM): 2.2 | F4, Firefly/Renilla for S/B(F4) > 3 (NR2F6; 10% FBS, 40 uM): 1.4 and 2.5 | Firefly, F4/pGL4 for S/B(F4) > 3 (NR2F6; 10% FBS, 40 uM): 2.3 and 2.1 | Firefly, F4, 1% FBS, cmpd/DMSO (mean) (NR2F6; F4, 1% FBS, 0.5 uM): 0.8 and 0.9 | Firefly, F4, 1% FBS, cmpd/DMSO (mean) (NR2F6; F4, 1% FBS, 2 uM): 1.5 and 0.9 | Firefly, F4, 1% FBS, cmpd/DMSO (mean) (NR2F6; F4, 1% FBS, 10 uM): 5.4 and 3.6 | Firefly, F4, 1% FBS, cmpd/DMSO (mean) (NR2F6; F4, 1% FBS, 40 uM): 0.8 and 0.7 | Firefly, F4, 10% FBS, cmpd/DMSO (mean) (NR2F6; F4, 10% FBS, 2 uM): 1.1 | Firefly, F4, 10% FBS, cmpd/DMSO (mean) (NR2F6; F4, 10% FBS, 10 uM): 4.1 and 2.3 | Firefly, F4, 10% FBS, cmpd/DMSO (mean) (NR2F6; F4, 10% FBS, 40 uM): 4.2 and 6.2 | fold induction at 0.5 µM (Renilla [1]; [15]): 1 | fold induction at 2 µM (Renilla [1]; [15]): 1 | fold induction at 10 µM (Renilla [1]; [15]): 1.9 | fold induction at 40 µM (Renilla [1]; [15]): 0.3 | fold induction at 0.5 µM (Renilla [1]; [16]): 1.1 | fold induction at 2 µM (Renilla [1]; [16]): 1.2 | fold induction at 10 µM (Renilla [1]; [16]): 1.6 | fold induction at 40 µM (Renilla [1]; [16]): 1.8 | fold induction at 0.5 µM (Renilla [1]; [17]): 1 | fold induction at 2 µM (Renilla [1]; [17]): 1.3 | fold induction at 10 µM (Renilla [1]; [17]): 2 | fold induction at 40 µM (Renilla [1]; [17]): 2 | fold induction at 0.5 µM (Renilla [1]; [18]): 1 | fold induction at 2 µM (Renilla [1]; [18]): 1.1 | fold induction at 10 µM (Renilla [1]; [18]): 1.8 | fold induction at 40 µM (Renilla [1]; [18]): 3 | Renilla LBD, cmpd/DMSO (mean) (Renilla [2]; 0.5 uM): 1.1 | Renilla LBD, cmpd/DMSO (mean) (Renilla [2]; 2 uM): 1.1 | Renilla LBD, cmpd/DMSO (mean) (Renilla [2]; 10 uM): 0.8 | Renilla LBD, cmpd/DMSO (mean) (Renilla [2]; 40 uM): 0.2

O=S1(=O)C[C@H](N2CCCCC2)[C@@H](S(=O)(=O)c2cccs2)C1 [Compound D105]
Firefly LBD, cmpd/DMSO (mean) (NR2F6 LBD; 0.5 uM, LBD): 1.2 | Firefly LBD, cmpd/DMSO (mean) (NR2F6 LBD; 2 uM, LBD): 1.8 | Firefly LBD, cmpd/DMSO (mean) (NR2F6 LBD; 10 uM, LBD): 3.8 | Firefly LBD, cmpd/DMSO (mean) (NR2F6 LBD; 40 uM, LBD): 0.7 | fold induction at 0.5 µM (HEK293 pGL4; [3]): 1.2 | fold induction at 2 µM (HEK293 pGL4; [4]): 1.9 | fold induction at 10 µM (HEK293 pGL4; [5]): 3.8 | fold induction at 40 µM (HEK293 pGL4; [6]): 0.7 | fold induction at 0.5 µM (HEK293 pGL4; [7]): 1.4 | fold induction at 2 µM (HEK293 pGL4; [8]): 1.2 | fold induction at 10 µM (HEK293 pGL4; [9]): 2.6 | fold induction at 40 µM (HEK293 pGL4; [10]): 1.1 | fold induction at 0.5 µM (HEK293 pGL4; [11]): 1.3 | fold induction at 2 µM (HEK293 pGL4; [12]): 1.6 | fold induction at 10 µM (HEK293 pGL4; [13]): 2.6 | fold induction at 40 µM (HEK293 pGL4; [14]): 1.7 | Firefly F4, cmpd/DMSO (mean) (NR2F6; 0.5 uM, F4): 1.1 | Firefly F4, cmpd/DMSO (mean) (NR2F6; 2 uM, F4): 2.4 | Firefly F4, cmpd/DMSO (mean) (NR2F6; 10 uM, F4): 5.5 | Firefly F4, cmpd/DMSO (mean) (NR2F6; 40 uM, F4): 0.9 | F4, Firefly/Renilla for S/B(F4) > 3 (NR2F6; 1% FBS, 10 uM): 2.5 | Firefly, F4/pGL4 for S/B(F4) > 3 (NR2F6; 1% FBS, 10 uM): 1.9 | F4, Firefly/Renilla for S/B(F4) > 3 (NR2F6; 10% FBS, 10 uM): 4.3 | Firefly, F4/pGL4 for S/B(F4) > 3 (NR2F6; 10% FBS, 10 uM): 3.4 | F4, Firefly/Renilla for S/B(F4) > 3 (NR2F6; 10% FBS, 40 uM): 1.4 | Firefly, F4/pGL4 for S/B(F4) > 3 (NR2F6; 10% FBS, 40 uM): 2.1 | Firefly, F4, 1% FBS, cmpd/DMSO (mean) (NR2F6; F4, 1% FBS, 0.5 uM): 1.5 | Firefly, F4, 1% FBS, cmpd/DMSO (mean) (NR2F6; F4, 1% FBS, 2 uM): 1.7 | Firefly, F4, 1% FBS, cmpd/DMSO (mean) (NR2F6; F4, 1% FBS, 10 uM): 4.9 | Firefly, F4, 1% FBS, cmpd/DMSO (mean) (NR2F6; F4, 1% FBS, 40 uM): 0.3 | Firefly, F4, 10% FBS, cmpd/DMSO (mean) (NR2F6; F4, 10% FBS, 0.5 uM): 1.0 | Firefly, F4, 10% FBS, cmpd/DMSO (mean) (NR2F6; F4, 10% FBS, 2 uM): 1.5 | Firefly, F4, 10% FBS, cmpd/DMSO (mean) (NR2F6; F4, 10% FBS, 10 uM): 8.9 | Firefly, F4, 10% FBS, cmpd/DMSO (mean) (NR2F6; F4, 10% FBS, 40 uM): 3.6 | Activity, cmpd/DMSO (NR2F6; Table 31): 5.7 | fold induction at 0.5 µM (Renilla [1]; [16]): 1.1 | fold induction at 2 µM (Renilla [1]; [16]): 1.2 | fold induction at 10 µM (Renilla [1]; [16]): 1.7 | fold induction at 40 µM (Renilla [1]; [16]): 0.7 | fold induction at 0.5 µM (Renilla [1]; [17]): 1.1 | fold induction at 2 µM (Renilla [1]; [17]): 1.2 | fold induction at 10 µM (Renilla [1]; [17]): 2 | fold induction at 40 µM (Renilla [1]; [17]): 1.6 | fold induction at 0.5 µM (Renilla [1]; [18]): 1.1 | fold induction at 2 µM (Renilla [1]; [18]): 1.2 | fold induction at 10 µM (Renilla [1]; [18]): 2.1 | fold induction at 40 µM (Renilla [1]; [18]): 2.6
